# Measured values from patent publication US8637702B2, “Derivatives of N-hydroxybenzamide for treating HIV infections” (Italfarmaco S.p.A., priority 2009, dated 2014).
# Tests used:
# [1] = tested on: micronucleated erythrocytes; details: administered to mice, Zolinza package leaflet; cited from earlier work
# [2] = 400 mg/day, Zolinza package leaflet; cited from earlier work
# [3] = tested on: bacteria; details: in vitro, Zolinza package leaflet; cited from earlier work
# [4] = tested on: latent HIV reservoir; details: combined with HAART, clinical studies; cited from earlier work
# [5] = target: HDAC4 (Homo sapiens, UniProt P56524); test: Inhibition of histone deacetylase isoforms, HDAC4
# Procedure: (§1) Recombinant human enzymes were acquired from BPS Biosciences (CA, USA). Isoforms of Class I HDAC1, 2, 3; HDAC6, 10 of Class IIb and Class IV HDAC11 were tested using the Fluor-de-Lys fluorogenic synthetic substrate (Enzo Life Sciences, Plymouth Meeting, Pa.). […] Each inhibitor was dissolved in DMSO and then further diluted in an assay buffer. […] The assays were performed by pre-incubating each enzyme with the inhibitors for 15 minutes at 37° C. The reaction was started by adding the substrate at 37° C. and allowed to proceed for 60 minutes. The fluorescent signal was generated by adding 50 μL of a twice concentrated developer solution 2 (Enzo) containing trichostatin A 4 μM.
# [6] = target: HDAC9 (Homo sapiens, UniProt Q9UKV0); test: Inhibition of histone deacetylase isoforms, HDAC9
# Procedure: as §1
# [7] = Monzani et al., EUROTOX 2007; cited from earlier work
# [8] = tested on: HIV-1 expression in ACH-2 cells; test: Induction of the HIV-1 expression in the ACH-2 cell line (p24); format: cell-based; details: 24 hours
# Procedure: ACH2 cells were obtained through AIDS Research and Reference Reagent Program, Division of AIDS, National Institute of Allergy and Infectious Diseases, National Institutes of Health, Bethesda, Md. The cells were cultured in flasks, washed in RPMI and resuspended in RPMI/10% FCS at a concentration of 2×10^6 cells/mL. […] After 24 hours of incubation at 37° C./5% CO2, 50 μL of supernatant were removed for the cytotoxicity assay of the lactate dehydrogenase (LDH) and Triton-X-100 (0.5% vol/vol final concentration) were added to each culture. The p24 assays of the lysates were performed immediately.
# p24 was measured using specific antibodies immobilized on magnetic beads as previously described [Nold M. F. et al. J. Immunol. […] The levels of p24 for each experiment without HDAC inhibitors were fixed at 1.0 and the increase values by the number of times for each experiment and each analogous were calculated.
# [9] = target: T1, HDAC10 (Homo sapiens, UniProt Q969S8); test: Inhibition of histone deacetylase isoforms, HDAC10
# T1 sequence (Q969S8 1-669): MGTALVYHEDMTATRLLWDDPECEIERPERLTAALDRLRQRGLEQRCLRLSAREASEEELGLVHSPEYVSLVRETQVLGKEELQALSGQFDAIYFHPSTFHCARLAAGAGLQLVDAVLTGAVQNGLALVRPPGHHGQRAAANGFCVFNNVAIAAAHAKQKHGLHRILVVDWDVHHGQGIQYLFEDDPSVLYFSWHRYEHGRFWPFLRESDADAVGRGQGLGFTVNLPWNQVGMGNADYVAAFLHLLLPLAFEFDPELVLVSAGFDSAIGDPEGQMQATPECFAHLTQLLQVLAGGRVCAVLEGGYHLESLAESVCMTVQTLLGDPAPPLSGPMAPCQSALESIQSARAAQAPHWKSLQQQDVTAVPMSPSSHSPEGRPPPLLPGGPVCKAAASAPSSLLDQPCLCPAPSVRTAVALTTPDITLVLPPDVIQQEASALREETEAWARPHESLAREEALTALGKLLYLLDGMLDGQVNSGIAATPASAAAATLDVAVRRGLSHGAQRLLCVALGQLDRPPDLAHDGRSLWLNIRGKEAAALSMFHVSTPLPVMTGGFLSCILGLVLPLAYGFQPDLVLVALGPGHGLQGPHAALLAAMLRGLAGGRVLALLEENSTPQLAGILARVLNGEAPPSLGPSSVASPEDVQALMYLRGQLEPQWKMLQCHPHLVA
# Procedure: as §1
# Sequence of HDAC4 (P56524 whole entry, canonical isoform): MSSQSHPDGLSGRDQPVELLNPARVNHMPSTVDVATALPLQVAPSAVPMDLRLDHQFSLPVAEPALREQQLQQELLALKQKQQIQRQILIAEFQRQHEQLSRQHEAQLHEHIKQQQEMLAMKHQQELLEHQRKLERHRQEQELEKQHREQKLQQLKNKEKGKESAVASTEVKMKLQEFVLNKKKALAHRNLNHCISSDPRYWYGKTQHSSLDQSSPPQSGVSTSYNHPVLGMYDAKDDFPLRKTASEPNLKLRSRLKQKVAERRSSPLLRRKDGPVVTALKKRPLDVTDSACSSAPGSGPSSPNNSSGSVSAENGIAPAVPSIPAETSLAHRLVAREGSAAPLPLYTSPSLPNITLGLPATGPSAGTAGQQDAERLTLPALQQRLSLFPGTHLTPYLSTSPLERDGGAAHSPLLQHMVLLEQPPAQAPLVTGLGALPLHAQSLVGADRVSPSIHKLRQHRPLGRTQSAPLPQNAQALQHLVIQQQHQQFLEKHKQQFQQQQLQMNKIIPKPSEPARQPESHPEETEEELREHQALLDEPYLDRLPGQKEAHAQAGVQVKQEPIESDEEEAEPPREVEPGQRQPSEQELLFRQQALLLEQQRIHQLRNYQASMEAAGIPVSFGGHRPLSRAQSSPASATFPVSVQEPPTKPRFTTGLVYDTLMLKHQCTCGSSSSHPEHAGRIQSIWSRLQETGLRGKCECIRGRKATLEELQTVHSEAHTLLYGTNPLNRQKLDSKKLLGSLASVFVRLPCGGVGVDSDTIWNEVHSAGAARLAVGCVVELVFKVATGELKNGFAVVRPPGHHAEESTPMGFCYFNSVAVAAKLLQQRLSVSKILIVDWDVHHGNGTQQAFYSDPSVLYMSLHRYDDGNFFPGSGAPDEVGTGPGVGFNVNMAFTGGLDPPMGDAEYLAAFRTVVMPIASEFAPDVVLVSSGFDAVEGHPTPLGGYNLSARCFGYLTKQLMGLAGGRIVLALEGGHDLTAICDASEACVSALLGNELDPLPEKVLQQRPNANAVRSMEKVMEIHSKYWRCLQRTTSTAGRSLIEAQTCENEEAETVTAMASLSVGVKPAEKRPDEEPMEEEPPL
# Sequence of HDAC9 (Q9UKV0 whole entry, canonical isoform): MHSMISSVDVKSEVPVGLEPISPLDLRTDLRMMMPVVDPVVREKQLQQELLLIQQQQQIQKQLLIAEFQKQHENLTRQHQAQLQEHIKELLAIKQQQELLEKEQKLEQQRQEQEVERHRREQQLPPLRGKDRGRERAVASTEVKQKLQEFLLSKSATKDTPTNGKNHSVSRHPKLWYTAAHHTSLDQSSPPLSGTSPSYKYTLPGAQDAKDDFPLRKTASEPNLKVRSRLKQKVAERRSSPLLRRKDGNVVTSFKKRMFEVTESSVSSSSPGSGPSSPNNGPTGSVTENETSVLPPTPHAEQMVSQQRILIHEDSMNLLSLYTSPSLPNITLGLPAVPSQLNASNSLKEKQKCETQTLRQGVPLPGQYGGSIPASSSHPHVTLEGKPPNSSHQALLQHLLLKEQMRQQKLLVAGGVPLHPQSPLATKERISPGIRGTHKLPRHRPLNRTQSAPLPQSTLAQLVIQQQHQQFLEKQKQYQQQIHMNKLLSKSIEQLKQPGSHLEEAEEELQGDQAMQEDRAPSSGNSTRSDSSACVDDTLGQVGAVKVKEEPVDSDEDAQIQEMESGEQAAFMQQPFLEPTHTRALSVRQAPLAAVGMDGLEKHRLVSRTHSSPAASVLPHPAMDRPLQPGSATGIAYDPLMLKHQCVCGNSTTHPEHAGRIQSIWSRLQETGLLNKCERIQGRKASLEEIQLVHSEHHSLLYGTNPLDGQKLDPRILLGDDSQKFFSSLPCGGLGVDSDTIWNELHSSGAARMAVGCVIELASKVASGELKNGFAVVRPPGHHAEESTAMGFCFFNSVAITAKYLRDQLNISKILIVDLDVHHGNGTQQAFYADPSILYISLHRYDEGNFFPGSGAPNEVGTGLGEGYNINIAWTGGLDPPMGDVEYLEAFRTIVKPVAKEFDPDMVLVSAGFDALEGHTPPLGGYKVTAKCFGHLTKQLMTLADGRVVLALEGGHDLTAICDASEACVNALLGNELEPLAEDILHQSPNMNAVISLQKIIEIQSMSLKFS
smiles,measurement,setting,value
O=C(CCCCCCC(=O)Nc1ccccc1)NO [SAHA],incidence of micronucleated erythrocytes,[1],increases the incidence of micronucleated erythrocytes
same,adverse effects in patients,[2],"numerous, serious adverse effects such as diarrhoea, tiredness, nausea, thrombocytopenia, anorexia and dysgeusia"
same,mutagenicity in bacterial back-mutation assays (Ames test),[3],mutagenic
"CCCC(CCC)C(=O)O [VPA, Valproic acid]",diminution of the latent reservoir,[4],without leading to any considerable diminution of the latent reservoir
"CCN(CC)Cc1ccc2cc(COC(=O)Nc3ccc(C(=O)NO)cc3)ccc2c1.Cl [ITF2357, Diethyl-[6-(4-hydroxycarbamoyl-phenylcarbamoyloxymethyl)-naphtalen-2-yl-methyl]ammonium chloride]",IC50,[5],724 nM
same,IC50,[6],518 nM
same,mutagenicity,[7],non-mutagenic
same,increase of the number of times in the level of p24 with respect to control,[8]; 31 nM,1 times
same,increase of the number of times in the level of p24 with respect to control,[8]; 63 nM,1 times
same,increase of the number of times in the level of p24 with respect to control,[8]; 125 nM,2 times
same,increase of the number of times in the level of p24 with respect to control,[8]; 250 nM,15 times
same,IC50,[9],351 nM
